# Experiments:
# Bacillus subtilis [1] = assay: Tested for antibiotic activity against Bacillus subtilis-ATTCC 6633 at dose 12.5 ug/mL via plate assay; type: functional
# L1210 [2] = assay: Tested for survivors on day 5 after administration at 0.4 mg/kg intraperitoneally in mice on day 1 in experiment 1; type: functional, Mus musculus; settings: route intraperitoneal
# L1210 [3] = assay: Tested for survivors on day 5 after administration at 6.4 mg/kg intraperitoneally in mice on day 1 in experiment 1; type: functional, Mus musculus; settings: route intraperitoneal
# L1210 [4] = assay: Average weight change after administration at 6.4 mg/kg intraperitoneally in mice on day 1 in experiment 1; type: functional, Mus musculus; settings: route intraperitoneal
# L1210 [5] = assay: Average weight change after administration at 3.2 mg/kg intraperitoneally in mice on day 1 in experiment 1; type: functional, Mus musculus; settings: route intraperitoneal
# L1210 [6] = assay: Tested for survivors on day 5 after administration at 3.2 mg/kg intraperitoneally in mice on day 1 in experiment 1; type: functional, Mus musculus; settings: route intraperitoneal
# P388 [7] = assay: Tested for survivors on day 5 after administration on every 4th day at 25 mg/kg intraperitoneally in mice; type: functional, Mus musculus; settings: route intraperitoneal
# P388 [8] = assay: Tested for survivors on day 5 after administration at 12.5 mg/kg intraperitoneally in mice on day 1 in experiment 2; type: functional, Mus musculus; settings: route intraperitoneal
# L1210 [9] = assay: Tested for survivors on day 5 after administration at 0.8 mg/kg intraperitoneally in mice on day 1 in experiment 1; type: functional, Mus musculus; settings: route intraperitoneal
# L1210 [10] = assay: Average weight change after administration at 0.8 mg/kg intraperitoneally in mice on day 1 in experiment 1; type: functional, Mus musculus; settings: route intraperitoneal
# P388 [11] = assay: Tested for survivors on day 5 after administration on every 4th day at 6.25 mg/kg intraperitoneally in mice; type: functional, Mus musculus; settings: route intraperitoneal
# L1210 [12] = assay: Median survival time of treated to that of control after administration at 1.6 mg/kg intraperitoneally in BDF1 mice on day 1 in experiment 1; type: functional, Mus musculus; settings: route intraperitoneal
# L1210 [13] = assay: Median survival time of treated to that of control after administration at 0.4 mg/kg intraperitoneally in BDF1 mice on day 1 in experiment 1; type: functional, Mus musculus; settings: route intraperitoneal
# P388 [14] = assay: Average weight change after administration on every 4th day at 12.5 mg/kg intraperitoneally in mice; type: functional, Mus musculus; settings: route intraperitoneal
# Bacillus subtilis [15] = assay: Tested for antibacterial effect against Bacillus subtilis-8 at dose 25 ug/mL; type: functional
# P388 [16] = assay: Median survival time of treated to that of control after administration on every 4th day at 50 mg/kg intraperitoneally in BDF1 mice; type: functional, Mus musculus; settings: route intraperitoneal
# Bacillus subtilis [17] = assay: Tested for antibacterial effect against Bacillus subtilis-8 at dose 6.25 ug/mL; type: functional
# P388 [18] = assay: Average weight change after administration on every 4th day at 25 mg/kg intraperitoneally in mice; type: functional, Mus musculus; settings: route intraperitoneal
# P388 [19] = assay: Average weight change after administration on every 4th day at 50 mg/kg intraperitoneally in mice; type: functional, Mus musculus; settings: route intraperitoneal
# L1210 [20] = assay: Median survival time of treated to that of control after administration at 6.4 mg/kg intraperitoneally in BDF1 mice on day 1 in experiment 1; type: functional, Mus musculus; settings: route intraperitoneal
# P388 [21] = assay: Average weight change after administration on every 4th day at 6.25 mg/kg intraperitoneally in mice; type: functional, Mus musculus; settings: route intraperitoneal
# L1210 [22] = assay: Tested for survivors on day 5 after administration at 12.8 mg/kg intraperitoneally in mice on day 1 in experiment 1; type: functional, Mus musculus; settings: route intraperitoneal
# L1210 [23] = assay: Average weight change after administration at 0.4 mg/kg intraperitoneally in mice on day 1 in experiment 1; type: functional, Mus musculus; settings: route intraperitoneal
# L1210 [24] = assay: Tested for survivors on day 5 after administration at 1.6 mg/kg intraperitoneally in mice on day 1 in experiment 1; type: functional, Mus musculus; settings: route intraperitoneal
# L1210 [25] = assay: Median survival time of treated to that of control after administration at 12.8 mg/kg intraperitoneally in BDF1 mice on day 1 in experiment 1; type: functional, Mus musculus; settings: route intraperitoneal
# L1210 [26] = assay: Average weight change after administration at 1.6 mg/kg intraperitoneally in mice on day 1 in experiment 1; type: functional, Mus musculus; settings: route intraperitoneal
# P388 [27] = assay: Median survival time of treated to that of control after administration at 3.13 mg/kg intraperitoneally in BDF1 mice; type: functional, Mus musculus; settings: route intraperitoneal
# P388 [28] = assay: Median survival time of treated to that of control after administration on every 4th day at 25 mg/kg intraperitoneally in BDF1 mice; type: functional, Mus musculus; settings: route intraperitoneal
# L1210 [29] = assay: Median survival time of treated to that of control after administration at 0.8 mg/kg intraperitoneally in BDF1 mice on day 1 in experiment 1; type: functional, Mus musculus; settings: route intraperitoneal
# P388 [30] = assay: Median survival time of treated to that of control after administration on every 4th day at 6.25 mg/kg intraperitoneally in BDF1 mice; type: functional, Mus musculus; settings: route intraperitoneal
# P388 [31] = assay: Tested for survivors on day 5 after administration on every 4th day at 3.13 mg/kg intraperitoneally in mice; type: functional, Mus musculus; settings: route intraperitoneal
# Bacillus subtilis [32] = assay: Tested for antibacterial effect against Bacillus subtilis-8 at dose 12.5 ug/mL; type: functional
# P388 [33] = assay: Average weight change after administration at 3.13 mg/kg intraperitoneally in mice; type: functional, Mus musculus; settings: route intraperitoneal
# L1210 [34] = assay: Median survival time of treated to that of control after administration at 3.2 mg/kg intraperitoneally in BDF1 mice on day 1 in experiment 1; type: functional, Mus musculus; settings: route intraperitoneal
# P388 [35] = assay: Tested for survivors on day 5 after administration on every 4th day at 50 mg/kg intraperitoneally in mice; type: functional, Mus musculus; settings: route intraperitoneal
# L1210 [36] = assay: Average weight change after administration at 12.8 mg/kg intraperitoneally in mice on day 1 in experiment 1; type: functional, Mus musculus; settings: route intraperitoneal
# Bacillus subtilis [37] = assay: Tested for antibacterial effect against Bacillus subtilis-8 at dose 50 ug/mL; type: functional
# P388 [38] = assay: Median survival time of treated to that of control after administration on every 4th day at 12.5 mg/kg intraperitoneally in BDF1 mice; type: functional, Mus musculus; settings: route intraperitoneal
structure (smiles),measurement,setting,value
CC(=O)[C@]1(O)Cc2c(O)c3c(c(O)c2C(O)C1)C(=O)c1c(O)cccc1C3=O (stereo partly drawn) [CARMINOMYCINONE],Inhibition zone,Bacillus subtilis [1],20.2 mm
COc1cccc2c1C(=O)c1c(O)c3c(c(O)c1C2=O)C[C@@](O)(C(C)=O)C[C@@H]3O[C@H]1C[C@H](O)[C@H](O)CO1,Survivors,L1210 [2],6
same,Survivors,L1210 [3],6
same,Average weight change,L1210 [4],2.4
same,Average weight change,L1210 [5],0.2
same,Survivors,L1210 [6],6
same,Survivors,P388 [7],6
same,Survivors,P388 [8],6
same,Survivors,L1210 [9],6
same,Average weight change,L1210 [10],1.8
same,Survivors,P388 [11],6
same,T/C,L1210 [12],86%
same,T/C,L1210 [13],100%
same,Average weight change,P388 [14],-1.3
same,Inhibition zone,Bacillus subtilis [15],15.8 mm
same,T/C,P388 [16],110%
same,Inhibition zone,Bacillus subtilis [17],10 mm
same,Average weight change,P388 [18],-0.5
same,Average weight change,P388 [19],0.2
same,T/C,L1210 [20],93%
same,Average weight change,P388 [21],-1.2
same,Survivors,L1210 [22],6
same,Average weight change,L1210 [23],1.5
same,Survivors,L1210 [24],6
same,T/C,L1210 [25],107%
same,Average weight change,L1210 [26],2.6
same,T/C,P388 [27],100%
same,T/C,P388 [28],110%
same,T/C,L1210 [29],100%
same,T/C,P388 [30],100%
same,Survivors,P388 [31],6
same,Inhibition zone,Bacillus subtilis [32],12.5 mm
same,Average weight change,P388 [33],-2
same,T/C,L1210 [34],100%
same,Survivors,P388 [35],6
same,Average weight change,L1210 [36],2.3
same,Inhibition zone,Bacillus subtilis [37],18.8 mm
same,T/C,P388 [38],112%
